Measured values taken from patent publication US20100184802A1, “Bicycloheteroaryl Compounds as P2X7 Modulators and Uses Thereof” (priority 2006, published 2010).

Target: T1, P2X7 receptor (IL-1β release from THP-1 cells) (Homo sapiens, UniProt Q99572)
T1 construct: host or cells: THP-1 cells differentiated with LPS and IFN-γ
T1 sequence (Q99572 1-595): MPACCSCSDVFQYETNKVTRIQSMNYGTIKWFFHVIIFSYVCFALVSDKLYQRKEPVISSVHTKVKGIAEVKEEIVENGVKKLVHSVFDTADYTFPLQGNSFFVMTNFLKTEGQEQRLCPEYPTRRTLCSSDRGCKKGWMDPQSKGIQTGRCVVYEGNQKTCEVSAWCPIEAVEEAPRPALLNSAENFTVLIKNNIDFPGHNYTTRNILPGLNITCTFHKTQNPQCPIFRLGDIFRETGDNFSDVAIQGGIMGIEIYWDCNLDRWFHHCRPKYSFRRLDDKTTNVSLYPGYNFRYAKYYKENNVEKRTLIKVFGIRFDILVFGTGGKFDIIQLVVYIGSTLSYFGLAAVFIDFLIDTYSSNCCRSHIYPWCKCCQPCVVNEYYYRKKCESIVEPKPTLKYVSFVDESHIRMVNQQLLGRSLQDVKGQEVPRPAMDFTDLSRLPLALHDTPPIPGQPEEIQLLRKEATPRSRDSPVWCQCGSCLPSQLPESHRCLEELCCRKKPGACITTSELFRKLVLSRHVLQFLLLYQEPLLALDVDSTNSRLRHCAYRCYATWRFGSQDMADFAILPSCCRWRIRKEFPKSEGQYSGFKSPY
Assay: IL-1β release assay in differentiated THP-1 cells stimulated with BzATP (Example 9)
Assay type: cell-based
Settings: for inhibition at 0.3 µM / inhibition at 0.1 µM: read-out: IL-1β % Inhib. @ 0.3 or 0.1 μM; for IC50: released IL-1β as in Example 9, four parameter logistic fit; for inhibition at 0.1 µM: 0.1 μM concentration
Procedure: The cells are then pretreated for 30 minutes with the compound of interest at the appropriate concentration in RPMI media containing 100 IU/mL penicillin, 100 ug/mL streptomycin. […] 30 uL of cell supernatant is then collected and IL-1β levels determined via ELISA (R&D systems Cat. #HSLB50) according to manufacturer's recommendations using the Tecan Safire plate reader. Background adjusted IL-1β levels of drug treated and non-treated cells are used to calculate the percent inhibition.
The compounds set forth in Table 1 were tested for activity in a cellular model as described herein. […] Measurements were made and IC50 values, presented in Table 2, below, were determined by fitting the data to a four parameter logistic equation using GraphPad Prism software (GraphPad Software, Inc). The equation may be expressed by the following formula:
Y=Bottom+(Top−Bottom)/(1+10̂((Log EC50−X)*HillSlope))
Where X is the logarithm of concentration, Y is the response and Y starts at Bottom and goes to Top with a sigmoid shape.

[1] = 0.3 μM concentration, BzATP 250 uM

Structure (SMILES)	inhibition at 0.3 µM [1] [%]	IC50 [nM]	inhibition at 0.1 µM (BzATP 250 uM) [%]	IL-1β % Inhib. @ 0.3 or 0.1 μM [1]
NC(=O)Cn1ccc2c(NC(=O)CC3CCCCCC3)cccc2c1=O [Compound 561, 2-(5-(2-Cycloheptyl-acetylamino)-1-oxo-1H-isoquinolin-2-yl)-acetamide]	> 76	38.2		
O=C(CC1(O)CCCCCC1)Nc1cccc2c(=O)n(C[C@H]3CCCN3)ccc12 [Compound 578, 2-(1-Hydroxy-cycloheptyl)-N-(1-oxo-2-(R)-1-pyrrolidin-2-ylmethyl-1,2-dihydro-isoquinolin-5-yl)-acetamide]	> 76	111		
O=C(CC1CCCCC1)Nc1cccc2c(=O)n(C(CO)CO)ccc12 [Compound 550]	51 to 75	266		
CC(C)C(CO)n1ccc2c(NC(=O)CC34CC5CC(CC(C5)C3)C4)cccc2c1=O (stereo not drawn) [Compound 516, 2-Adamantan-1-yl-N-[2-(1-hydroxymethyl-2-methyl-propyl)-1-oxo-1,2-dihydro-isoquinolin-5-yl]-acetamide]	> 76	0.049		
O=C(CC1CCCCCC1)Nc1cccc2c(=O)n(C[C@@H]3CCCN3)ccc12 [Compound 577]	> 76			
CC(C)(CO)n1ccc2c(NC(=O)CC3CCCCCC3)cccc2c1=O [Compound 614]	> 76	91.4		
CC(O)Cn1ccc2c(NC(=O)CC3C[C@@H]4CC[C@H]3C4)cccc2c1=O (stereo partly drawn) [Compound 564]			51 to 75	
CC(C)(C)OC(=O)N1CCC(CC(=O)Nc2cccc3c(=O)n(CCO)ccc23)CC1 [Compound 532]	0 to 25	> 1000		
C[C@H](CO)N1CCc2c(NC(=O)CC34CC5CC(C)(CC(C)(C5)C3)C4)cccc2C1=O [Compound 534]	> 76	11.5		
CC(O)Cn1ccc2c(NC(=O)C3C[C@@H]4CC[C@H]3C4)cccc2c1=O (stereo partly drawn) [Compound 567]			26 to 50	
CC1(C)CCCC(O)(CC(=O)Nc2cccc3c(=O)n(CCO)ccc23)C1 (stereo not drawn) [Compound 547]	51 to 75	287		
CC(C)(O)Cn1ccc2c(NC(=O)[C@H]3CC[C@H](C)CC3)cccc2c1=O [Compound 568]			0 to 25	
CC(C)C[C@H](CO)n1ccc2c(NC(=O)CC3(O)CCCCCC3)cccc2c1=O [Compound 596]	> 76	5.59		
CC(C)[C@H](C(=O)NC1CC1)n1ccc2c(NC(=O)CC3CCCCCC3)cccc2c1=O [Compound 595, (R)-2-[5-(2-Cycloheptyl-acetylamino)-1-oxo-1H-isoquinolin-2-yl]-N-cyclopropyl-3-methyl-butyramide]	> 76	20.7		
C[C@@H](CO)N1CCc2c(NC(=O)CC34CC5CC(C)(CC(C)(C5)C3)C4)cccc2C1=O [Compound 535]	> 76	0.341		
CC(C)(C)OC(=O)N1CCC(C(=O)Nc2cccc3c(=O)n(CCO)ccc23)CC1 [Compound 537]	0 to 25	> 1000		
CC(O)Cn1ccc2c(NC(=O)[C@H]3CC[C@H](C)CC3)cccc2c1=O (stereo partly drawn) [Compound 563]			0 to 25	
C[C@H](C(N)=O)n1ccc2c(NC(=O)CC3CC(C)(C)CC(C)(C)C3)cccc2c1=O [Compound 588]	> 76	0.929		
C[C@@H](C(N)=O)n1ccc2c(NC(=O)CC3(O)CC(C)(C)CC(C)(C)C3)cccc2c1=O [Compound 556]	51 to 75	257		
C[C@@H](CO)n1ccc2c(NC(=O)CC3CCCCCC3)cccc2c1=O [Compound 605, 2-Cycloheptyl-N-[2-((S)-2-hydroxy-1-methyl-ethyl)-1-oxo-1,2-dihydro-isoquinolin-5-yl]-acetamide]	> 76	66.5		
O=C(CC1(O)CCCCCC1)Nc1cccc2c(=O)n(C(CO)CO)ccc12 [Compound 552]	0 to 25	760		

The next lines start with results.

inhibition at 0.3 µM [1] [%]	IC50 [nM]	inhibition at 0.1 µM (BzATP 250 uM) [%]	Structure (SMILES)	IL-1β % Inhib. @ 0.3 or 0.1 μM [1]
> 76	3.23		C[C@H](CO)n1ccc2c(NC(=O)CC34CC5CC(C)(CC(C)(C5)C3)C4)cccc2c1=O [Compound 525]	
	0.202		CC(C)[C@H](C(N)=O)n1ccc2c(NC(=O)CC34CC5CC(CC(C5)C3)C4)cccc2c1=O [Compound 536]	++++ (compound exhibited 76% or greater inhibition at 0.3 μM concentration)
> 76	1.36		NC(=O)C(Cc1c[nH]cn1)n1ccc2c(NC(=O)CC34CC5CC(CC(C5)C3)C4)cccc2c1=O (stereo not drawn) [Compound 514]	
> 76	1		O=C(CC12CC3CC(CC(C3)C1)C2)Nc1cccc2c(=O)n(C[C@H]3CCCN3)ccc12 [Compound 506]	
> 76	0.204		C[C@@H](CO)n1ccc2c(NC(=O)CC34CC5CC(C)(CC(C)(C5)C3)C4)cccc2c1=O [Compound 524]	
> 76	0.65		O=C(CC12CC3CC(CC(C3)C1)C2)Nc1cccc2c(=O)n(C[C@@H]3CCCN3)ccc12 [Compound 505]	
26 to 50	303		CC(C)[C@H](C(=O)NC1CC1)n1ccc2c(NC(=O)CC34CC5CC(CC(C5)C3)C4)cccc2c1=O [Compound 594]	
> 76	40.8		NC(=O)[C@H](CO)n1ccc2c(NC(=O)CC3CCCCCC3)cccc2c1=O [Compound 575, (S)-2-[5-(2-Cycloheptyl-acetylamino)-1-oxo-1H-isoquinolin-2-yl]-3-hydroxy-propionamide]	
26 to 50	427		NC(=O)Cn1ccc2c(NC(=O)CC3(O)CCCCCC3)cccc2c1=O [Compound 562]	
		51 to 75	NC(=O)[C@H](Cc1ccccc1)n1ccc2c(NC(=O)CC34CC5CC(CC(C5)C3)C4)cccc2c1=O [Compound 502]	
> 76	4.79		NC(=O)CN1CCc2c(NC(=O)CC34CC5CC(CC(C5)C3)C4)cccc2C1=O [Compound 533]	
> 76	3.78		CC(C)(CO)n1ccc2c(NC(=O)CC34CC5CC(CC(C5)C3)C4)cccc2c1=O [Compound 613, 2-Adamantan-1-yl-N-[2-(2-hydroxy-1,1-dimethyl-ethyl)-1-oxo-1,2-dihydro-isoquinolin-5-yl]acetamide]	
> 76	1.5		CC12CC3CC(C)(C1)CC(CC(=O)Nc1cccc4c(=O)n(CC(N)=O)ccc14)(C3)C2 [Compound 523]	
> 76	22		CC(C)[C@H](C(=O)O)n1ccc2c(NC(=O)CC34CC5CC(CC(C5)C3)C4)cccc2c1=O [Compound 603]	
> 76	1.37		O=C(CC12CC3CC(CC(C3)C1)C2)Nc1cccc2c1CCN(CCO)C2=O [Compound 549, 2-Adamantan-1-yl-N-[2-(2-hydroxy-ethyl)-1-oxo-1,2,3,4-tetrahydro-isoquinolin-5-yl]-acetamide]	
		0 to 25	CC(C)(O)Cn1ccc2c(NC(=O)[C@@]34C[C@@H]5C[C@@H](C[C@@H]3C5)C4)cccc2c1=O [Compound 570]	
> 76	12.3		C[C@@H](C(N)=O)n1ccc2c(NC(=O)CC3CCCCCC3)cccc2c1=O [Compound 554]	
> 76	0.271		NC(=O)Cn1ccc2c(NC(=O)CC34CC5CC(CC(C5)C3)C4)cccc2c1=O [Compound 509]	
> 76	2.38		CC(C)[C@H](C(N)=O)n1ccc2c(NC(=O)CC3CCCCCC3)cccc2c1=O [Compound 597, (R)-2-[5-(2-Cycloheptyl-acetylamino)-1-oxo-1H-isoquinolin-2-yl]-3-methyl-butyramide]	
> 76	0.315		C[C@@H](CO)n1ccc2c(NC(=O)CC34CC5CC(CC(C5)C3)C4)cccc2c1=O [Compound 521]	
> 76	4.09		CC1(C)CC(CC(=O)Nc2cccc3c(=O)n([C@@H](C(N)=O)c4ccccc4)ccc23)CC(C)(C)C1 [Compound 593, (R)-2-{1-Oxo-5-[2-(3,3,5,5-tetramethylcyclohexyl)-acetylamino]-1H-isoquinolin-2-yl}-2-phenyl-acetamide]	
> 76	0.149		C[C@@H](CO)N1CCc2c(NC(=O)CC34CC5CC(CC(C5)C3)C4)cccc2C1=O [Compound 527]	
> 76	48.2		C[C@H](C(N)=O)n1ccc2c(NC(=O)CC34CC5CC(CC(O)(C5)C3)C4)cccc2c1=O [Compound 581]	
